Test system: female Wistar rats having DMBA-induced breast cancer
Assay: Serum antioxidant enzyme activities in rats with DMBA-induced breast cancer
Format: in vivo, rat
Conditions: oral, daily for three months, ADE 1 or 0.5 g/kg b.w., melatonin 2.5 mM
Source text: This is an in vivo experiment showing the improvement of Ajwa Date Extract (ADE) on the antioxidant system in rats having breast cancer induced by 7,12-Dimethylbenz[a]anthracene (DMBA).
The experiment of DMBA-induced breast cancer in female Wistar rats was comprised of six different treatment groups: the untreated controls (administered normal diet), DMBA-treated, DMBA-treated and orally administered 1 g/kg b.w. (body weight) of ADE, DMBA-treated and orally administered 0.5 g/kg b.w. of ADE, DMBA-treated and administered orally 2.5 mM melatonin, and DMBA-treated and administered 2.5 mM melatonin plus 1 g/kg b.w. of ADE. All six groups were treated daily for three months. On sacrification day, samples of blood were collected with the serum being separated and stored at −80° C.
The collected sera were analyzed for four mean activities namely, of superoxide dismutase (SOD) catalase, glutathione reductase (GR), and glutathione peroxidase (GPx). The means of the four activities in sera of the six treatment groups are illustrated in FIGS. 4-7. The mean serum SOD (FIG. 4), catalase (FIG. 5), GR (FIG. 6), and GPx (FIG. 7) in DMBA and ADE and/or melatonin administered rats was higher than that of the DMBA administered rats that were deprived of the ADE and/or melatonin.

COc1ccc2[nH]cc(CCNC(C)=O)c2c1 [melatonin]
higher: mean serum SOD activity (compared with DMBA-only rats (FIG. 4)) | mean serum catalase activity (compared with DMBA-only rats (FIG. 5)) | mean serum GR activity (compared with DMBA-only rats (FIG. 6)) | mean serum GPx activity (compared with DMBA-only rats (FIG. 7))

Reference: US10226501B2, “Method of orally administering a date fruit extract to treat breast cancer” (King Abdulaziz University, priority 2017, dated 2019)
